Holding throughout (format): physicochemical
Data set [1] can be described thus: Solubility in formulation vehicles with different solubilizers. The conditions noted are these: for Solubility in vehicle containing Solutol 15 HS compared to polyoxyethylated surfactants: comparison in words; for solubility at 8 weeks: read-out: Solubility (mg/ml) measured after 8 weeks. The source says:
Table 1 summarizes solubility of Cmpd 1 in vehicles with 4 different solubilizers over a range of temperatures.

The nature of data set [2]: Stability of Cmpd 1 in formulations, impurities by percent area LC. Conditions: macrogol 15 hydroxystearate vs PS80 formulation of Table 3; 25° C. and 40° C. storage; FIGS. 2A-D. The procedure:
FIGS. 2A-D: Stability results for Cmpd 1 in formulations containing either polysorbate 80 (PS80) or macrogol 15 hydroxystearate (Sol-2) as solubilizer as shown in Table 3. See Examples. […] Impurity amounts were calculated by percent area by liquid chromatography (LC). FIG. 2A: 25° C. storage, total impurities. FIG. 2B: 25° C. storage, major degradation product. FIG. 2C: 40° C. storage, total impurities. FIG. 2D: 40° C. storage, major degradation product. Legend: as in FIG. 1.

Data set [3] is described as follows: Stability of Cmpd 2 in formulations, percent remaining by LC. The procedure: FIG. 1. See Examples. Samples were stored at 25° C. Axes: x-axis (time, months); y-axis (stability of Cmpd 2 as measured by percent remaining by liquid chromatography, LC). Legend: macrogol 15 hydroxystearate (box); polysorbate 80 (diamond).
See Examples. […] Axes: x-axis (time, months); y-axis (stability of Cmpd 2 as measured by percent remaining by liquid chromatography, LC). Legend Formulation PSI, storage 40° C./20% RH, % remaining by LC (Diamond); Formulation Sol1, storage 40° C./20% RH, % remaining by LC (Square); Formulation PSI, storage 25° C./40% RH, % remaining by LC (Triangle); Formulation Sol1, storage 25° C./40% RH, % remaining by LC (cross); Formulation PSI, storage 5° C., % remaining by LC (Asterix); Formulation Sol1, storage 5° C., % remaining by LC (circle).
Axes: x-axis (time, months); y-axis (stability of Cmpd 2 as measured by percent remaining by liquid chromatography, LC). Legend Formulation #2, storage 5°, % remaining by LC (Diamond); Formulation #2, storage 25° C./40% RH, % remaining by LC (Square); Formulation #2, storage 30° C./60% RH, % remaining by LC (Triangle); Formulation #5, storage 5° C., % remaining by LC (cross); Formulation #5, storage 25° C./40% RH, % remaining by LC (Asterix); Formulation #5, storage 30° C./60% RH, % remaining by LC (circle).

Data set [4] can be described thus: Cmpd 4 solubility in Solutol HS 15 vehicles.

Molecules are shown by their SMILES. ≈ marks a conversion by molar mass, not a printed value. Like-named read-outs stand apart in the source and are kept apart here.

Consider `CCCCC[C@H](O)c1ccc(N2C(=O)CC[C@@H]2COCc2ccc(C(=O)OC(C)C)s2)cc1` [Cmpd 1, isopropyl 5-((((R)-1-(4-((S)-1-hydroxyhexyl)phenyl)-5-oxopyrrolidin-2-yl)methoxy)methyl)thiophene-2-carboxylate], for which the “Solubility in vehicle containing Solutol 15 HS compared to polyoxyethylated surfactants” value in data set [1] is given as “higher than that containing POE40 stearate or polysorbate 20, but slightly lower than that containing Polysorbate 80”. The solubility at 8 weeks in data set [1] (formulation vehicle with 1% POE 40 Stearate, aqueous with cosolvent or surfactant or cyclodextrin, vehicle with 1% POE 40 Stearate, 5 °C) came to 1.27 mg/mL (≈ 2680 µM); in data set [1] (formulation vehicle with 1% POE 40 Stearate, aqueous with cosolvent or surfactant or cyclodextrin, vehicle with 1% POE 40 Stearate, 25 °C), 1.21 mg/mL (≈ 2560 µM); in data set [1] (formulation vehicle with 1% POE 40 Stearate, aqueous with cosolvent or surfactant or cyclodextrin, vehicle with 1% POE 40 Stearate, 40 °C), 1.15 mg/mL (≈ 2430 µM); in data set [1] (formulation vehicle with 1% Polysorbate 20, aqueous with cosolvent or surfactant or cyclodextrin, vehicle with 1% Polysorbate 20, 5 °C), 1.24 mg/mL (≈ 2620 µM); in data set [1] (formulation vehicle with 1% Polysorbate 20, aqueous with cosolvent or surfactant or cyclodextrin, vehicle with 1% Polysorbate 20, 25 °C), 1.18 mg/mL (≈ 2490 µM); in data set [1] (formulation vehicle with 1% Polysorbate 20, aqueous with cosolvent or surfactant or cyclodextrin, vehicle with 1% Polysorbate 20, 40 °C), 1.05 mg/mL (≈ 2220 µM). The solubility at 8 weeks in data set [1] (formulation vehicle with 1% Polysorbate 80, aqueous with cosolvent or surfactant or cyclodextrin, vehicle with 1% Polysorbate 80, 5 °C) turned out to be 1.68 mg/mL (≈ 3540 µM); in data set [1] (formulation vehicle with 1% Polysorbate 80, aqueous with cosolvent or surfactant or cyclodextrin, vehicle with 1% Polysorbate 80, 25 °C), 1.52 mg/mL (≈ 3220 µM); in data set [1] (formulation vehicle with 1% Polysorbate 80, aqueous with cosolvent or surfactant or cyclodextrin, vehicle with 1% Polysorbate 80, 40 °C), 1.46 mg/mL (≈ 3080 µM); in data set [1] (formulation vehicle with 1% Solutol HS 15, aqueous with cosolvent or surfactant or cyclodextrin, vehicle with 1% Solutol HS 15, 5 °C), 1.5 mg/mL (≈ 3170 µM); in data set [1] (formulation vehicle with 1% Solutol HS 15, aqueous with cosolvent or surfactant or cyclodextrin, vehicle with 1% Solutol HS 15, 25 °C) it was 1.32 mg/mL (≈ 2790 µM); in data set [1] (formulation vehicle with 1% Solutol HS 15, aqueous with cosolvent or surfactant or cyclodextrin, vehicle with 1% Solutol HS 15, 40 °C), 1.24 mg/mL (≈ 2610 µM). Besides, in data set [2], the “Oxidative degradation (total impurities, major degradation product)” value is recorded as “prevent oxidative degradation seen in PS80 containing formulations”.

For `CCCCC[C@H](O)c1ccc(N2C(=O)CC[C@@H]2CCCc2ccc(C(=O)OC(C)C)s2)cc1` [Cmpd 2, isopropyl 5-(3-((S)-1-(4-((S)-1-hydroxyhexyl)phenyl)-5-oxopyrrolidin-2-yl)propyl)thiophene-2-carboxylate], the “Solubility in vehicle containing Solutol 15 HS compared to polyoxyethylated surfactants” value in data set [1] was “comparable or better solubility”. The “Degradation (percent remaining by LC)” value in data set [3] (macrogol 15 hydroxystearate (#2) vs PS80 (#5) formulation of Table 8, 5° C., 25° C./40% RH, 30° C./60% RH, FIG. 4) was “prevent degradation seen in PS80 containing formulations at all storage conditions”; in data set [3] (macrogol 15 hydroxystearate vs PS80 formulation of Table 7, 40° C./20% RH storage, FIG. 3), “prevent degradation seen in PS80 containing formulations”.

For the compound `Cc1c(COC(=O)C(C)(C)C)cccc1[C@H](C)c1c[nH]cn1` [Cmpd 4, 3-[(1S)-1-(1H-imidazol-4-yl)ethyl]-2-methylbenzyl pivalate], the “Cmpd 4 Solubility (% w/w) <mixing overnights (>24 hr) at ambient room temperature>” value is given as 0.07 % w/w in data set [4] (0.1% Solutol HS 15, adjusted to pH 5.5, final pH 5.9 post-filtration); 0.02 % w/w in data set [4] (0.1% Solutol HS 15, adjusted to pH 6.5, final pH 6.7 post-filtration); 0.11 % w/w in data set [4] (0.5% Solutol HS 15, adjusted to pH 5.5, final pH 6.1 post-filtration); 0.06 % w/w in data set [4] (0.5% Solutol HS 15, adjusted to pH 6.5, final pH 6.8 post-filtration); 0.16 % w/w in data set [4] (1.0% Solutol HS 15, adjusted to pH 5.5, final pH 6.1 post-filtration); 0.10 % w/w in data set [4] (1.0% Solutol HS 15, adjusted to pH 6.5, final pH 6.8 post-filtration).
